Assay: Chiral / configurational stability at the carbon alpha to the ketone
Format: physicochemical

configurational stability at the carbon center alpha to the ketone (compared to the corresponding 5 and 6 membered ring compounds): configurationally more stable
chiral stability (compared to the protonated isomer): superior chiral stability
SMILES: [2H]C1(NC(=O)[C@H](CC(C)C)NC(=O)c2cnc3ccccc3n2)CCCN(S(=O)(=O)c2cccc[n+]2[O-])C([2H])([2H])C1=O (stereo partly drawn) [present compound, quinoxaline-2-carboxylic acid {(S)-3-methyl-1-[(2,2′,4-trideuterio)-3-oxo-1-(1-oxy-pyridine-2-sulfonyl)-azepan-4-ylcarbamoyl]-butyl}amide]
